Drawing on patent US12268694B2, “Combination pharmaceutical agents as RSV inhibitors” (Enanta Pharmaceuticals, Inc., priority 2017, dated 2025), this text covers EC50 for 38 compounds.

Like-named read-outs stand apart in the source and are kept apart here. Some results are limits rather than exact numbers.

In assay [1] the test system is genotype A, "Long" strain RSV. The assay can be described thus: RSV-A assay: CPE protection in HEp-2 cells, ATPlite readout. The format is cell-based, human respiratory syncytial virus. The procedure, abridged:
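EC50 derives from ATPlite luminescence after 5-day culture of RSV Long-infected (MOI 0.1) HEp-2 cells, seeded 8,000/well, exposed to duplicate 2-fold compound series. CC50 comes from an identical plate receiving medium instead of virus.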

Assay [2] relates to RSV genotype B, strain 9320. The assay can be described thus: RSV-B assay: A549 cells infected with RSV-B, qPCR or ATPlite readout. Particulars: read-out: Human RSV-B EC50. It is filed as cell-based. From the text:
HEp-2 cells, (originally derived from tumors grown in irradiated-cortisonised weanling rats that had been injected with epidermoid carcinoma tissue from a person's larynx, but later found to be indistinguishable from HeLa cells by PCR DNA analysis), were used for the culturing of genotype B, strain 9320. Flasks were inoculated with RSV-B and viral stocks were collected once cytopathic effect (CPE) was greater than […]. Viral stocks in 25% sucrose media were snap frozen using liquid nitrogen to increase viral stability. Viral stock titers were quantified by tissue culture infectious dose 50% (TCID50) using 8,000 cells per well and 5-fold viral dilutions across a 96-well plate, cultured for 4 days. Viral stock titers were also quantified by a plaque forming unit assay, as described elsewhere.
The assay is run as follows: A549 cells (originally derived through explant culture from a person's carcinomatous lung tissue) are seeded into the inner 60 wells of a 96-well plate at 3,000 cells per well in a volume of 50 μL using A549 growth media (F-12K Media, 1% Penn/Strep, 1% nonessential amino acids, 10% heat-inactivated FBS). 2-fold serial dilutions of control and test compounds are added to the wells in duplicate in a total volume of 25 μL. Viral stock is then added to the wells at a multiplicity of infection (MOI) of 0.5 in a volume of 25 μL, bringing the total volume of each well to 100 μL. The MOI is calculated using the PFU/mL, or TCID50 if unavailable. Each 96-well plate has a control column of 6 wells with cells and virus but no compound (negative control, max CPE), a column with cells but no compound or virus (positive control, minimum CPE), and a column with no cells or virus or compound (background plate/reagent control). The control wells with cells but no virus are given an additional 25 μL of growth media containing an equal quantity of sucrose as those wells receiving the viral stock in order to keep consistent in media and volume conditions. The outer wells of the plate are filled with 125 μL of moat media (DMEM, 1% Penn/Strep) to act as a thermal and evaporative moat around the test wells. 6 days post infection, the plates are read using qPCR or ATP lite (50 μL added per well), which quantifies the amount of ATP (a measure of cell health) present in each well. Assay plates treated with APTlite are read using the Envision luminometer. […] EC50 ranges are as follows: A <0.4 μM; B 0.4-0.8 μM; C >0.8 μM.
(In general: Real-time PCR tracks product formation cycle by cycle.)

Where [3] appears, read: human respiratory syncytial virus, HEp-2, read-out: Human RSV-A (“Long” strain) EC50.
[4] abbreviates: human respiratory syncytial virus, A549, 144 h.

For orientation: EC50 means the midpoint of the concentration-response curve.

As for `CN(C)c1ccc(-c2nnc(NC3N=C(c4ccccc4)c4ccccc4NC3=O)o2)nc1` (stereo not shown) [Example 108], the concentration giving a half-maximal response (EC50) in assay [1] (setting [3]) and in assay [2] (setting [4]) was greater than 800 nM each time.

In the case of `O=C1Nc2ccccc2C(c2ccccc2)=N[C@@H]1Nc1nnc(-c2nc(-c3ccncc3)sc2N2CCOCC2)o1` [Example 429], the EC50 in assay [1] (setting [3]) and in assay [2] (setting [4]) was less than 400 nM throughout.

`N#Cc1ccc(-c2nnc(N[C@H]3N=C(c4ccccc4)c4ccccc4NC3=O)o2)c(N2CCOCC2)n1` [Example 153]: the EC50 in assay [1] (setting [3]) and in assay [2] (setting [4]) was less than 400 nM in each case.

In the case of `O=C1Nc2ccccc2C(c2ccccc2)=NC1Nc1ccc(-c2ccccc2)nn1` (stereo not shown) [Example 95], the figures for the EC50 in assay [1] (setting [3]) and in assay [2] (setting [4]) were 400 to 800 nM and greater than 800 nM, respectively.

Regarding `O=C1Nc2ccccc2C(c2ccccc2)=N[C@@H]1Nc1nnc(-c2ncc(Br)cc2N2CCOCC2)o1` [Example 168], the EC50 in assay [1] (setting [3]) and in assay [2] (setting [4]) was less than 400 nM throughout.

On to `O=C1Nc2ccccc2C(c2ccccc2)=N[C@@H]1Nc1nnc(-c2csc(N3CCOCC3)n2)o1` [Example 351], for which the 50% effective concentration (EC50) in assay [1] (setting [3]) and in assay [2] (setting [4]) was 400 to 800 nM throughout.

Regarding `O=C1Nc2ccccc2C(c2ccccc2)=N[C@@H]1Nc1nnc(-c2nc(-c3cccnc3)sc2N2CCOCC2)o1` [Example 388], the EC50 in assay [1] (setting [3]) and in assay [2] (setting [4]) was less than 400 nM each time.

As to `N#CCCNc1cc(C(F)(F)F)cnc1-c1nnc(N[C@H]2N=C(c3ccccc3)c3ccccc3NC2=O)o1` [Example 303], the concentration for a half-maximal effect (EC50) in assay [1] (setting [3]) and in assay [2] (setting [4]) was less than 400 nM throughout.

As to `Cc1nc(N2CCOCC2)c(-c2nnc(N[C@H]3N=C(c4ccccc4)c4ccccc4NC3=O)o2)cc1C#N` [Example 158], the EC50 in assay [1] (setting [3]) and in assay [2] (setting [4]) was less than 400 nM throughout.

In the case of `N#Cc1cc(-c2nnc(N[C@H]3N=C(c4ccccc4)c4ccccc4NC3=O)o2)c(N2CCOCC2)nc1C1CC1` [Example 175], the concentration giving a half-maximal response (EC50) in assay [1] (setting [3]) is less than 400 nM; in assay [2] (setting [4]), 400 to 800 nM.

As for `O=C1Nc2ccccc2C(c2ccccc2)=N[C@@H]1Nc1nnc(-c2ncc(C3CC3)cc2N2CCOCC2)o1` [Example 169], the EC50 in assay [1] (setting [3]) and in assay [2] (setting [4]) was less than 400 nM in each case.

For `O=C1Nc2ccccc2C(c2ccccc2)=N[C@@H]1Nc1nnc(-c2nc3ccccc3cc2N2CCOCC2)o1` [Example 322], the EC50 in assay [1] (setting [3]) and in assay [2] (setting [4]) was less than 400 nM each time.

Regarding `O=C1Nc2c(F)cccc2C(c2ccccc2)=N[C@@H]1Nc1nnc(-c2cccnc2N2CCOCC2)o1` (single isomer, unassigned) [Example 358], the EC50 in assay [1] (HEp-2 cells, RSV-A Long strain, ATPlite readout, read-out: Human RSV-A (“Long” strain) EC50) is less than 400 nM; in assay [2] (A549 cells, strain 9320, MOI 0.5, 6 days post infection) it was less than 400 nM.

In the case of `Cn1c(N2CCOCC2)c(-c2nnc(N[C@H]3N=C(c4ccccc4)c4ccccc4NC3=O)o2)ccc1=O` [Example 155], the EC50 in assay [1] (setting [3]) and in assay [2] (setting [4]) was less than 400 nM each time.

As to `O=C1Nc2ccccc2C(c2ccccc2)=N[C@@H]1Nc1nnc(-c2nc(C3CC3)sc2N2CCOCC2)o1` [Example 338], the EC50 in assay [1] (setting [3]) and in assay [2] (setting [4]) was less than 400 nM throughout.

With `N#Cc1cnc(-c2nnc(N[C@H]3N=C(c4ccccc4)c4ccccc4NC3=O)o2)c(N2CCOCC2)c1` [Example 160], in assay [2] (setting [4]), the concentration for a half-maximal effect (EC50) is less than 400 nM.

For `N#Cc1cnc(-c2nnc(N[C@H]3N=C(c4ccccc4)c4ccccc4NC3=O)o2)c(N2CC3CCC(C2)O3)c1` [Example 304], the EC50 in assay [1] (setting [3]) and in assay [2] (setting [4]) was less than 400 nM throughout.

As for `COC1CCN(c2cc(C(F)(F)F)cnc2-c2nnc(N[C@H]3N=C(c4ccccc4)c4ccccc4NC3=O)o2)CC1` [Example 268], the EC50 in assay [1] (setting [3]) is greater than 800 nM; in assay [2] (setting [4]), 400 to 800 nM.

As for `CC(F)(F)c1nc(-c2nnc(N[C@H]3N=C(c4ccccc4)c4ccccc4NC3=O)o2)c(N2CCOCC2)s1` [Example 407], the half-maximal effective concentration (EC50) in assay [1] (setting [3]) and in assay [2] (setting [4]) was less than 400 nM each time.

With `O=C1Nc2ccccc2C(c2ccccc2)=N[C@@H]1Nc1nnc(-c2ccc(C(F)(F)F)nc2N2CC3CCC(C2)O3)o1` [Example 276], the EC50 was 400 to 800 nM in assay [1] (setting [3]) and greater than 800 nM in assay [2] (setting [4]).

For the compound `O=C1Nc2ccccc2C(c2ccccc2)=N[C@@H]1Nc1nnc(-c2nc(-c3ccccc3)sc2N2CCOCC2)o1` [Example 340], the EC50 in assay [1] (setting [3]) and in assay [2] (setting [4]) was less than 400 nM in each case.

`O=C1Nc2ccccc2C(c2ccccc2)=N[C@@H]1Nc1nnc(-c2nc(-c3ccccn3)sc2N2CCOCC2)o1` [Example 341]: the concentration for a half-maximal effect (EC50) in assay [1] (setting [3]) and in assay [2] (setting [4]) was less than 400 nM in each case.

For the compound `O=C1Nc2ccccc2C(c2ccccc2)=NC1Nc1nnc(-c2ccc(-n3cccn3)cc2)[nH]1` (stereo not shown) [Example 364], the values for the half-maximal effective concentration (EC50) in assay [1] (setting [3]) and in assay [2] (setting [4]) were less than 400 nM and 400 to 800 nM, respectively.

As for `CN1CCN(c2ccccc2-c2nnc(NC3N=C(c4ccccc4)c4ccccc4NC3=O)o2)CC1` (stereo not shown) [Example 224], the figures for the concentration giving a half-maximal response (EC50) in assay [1] (setting [3]) and in assay [2] (setting [4]) were greater than 800 nM and less than 400 nM, respectively.

On to `O=C1Nc2ccccc2C(c2ccccc2)=N[C@@H]1Nc1nnc(-c2oc3ccccc3c2N2CCOCC2)o1` [Example 179], for which the EC50 in assay [1] (setting [3]) and in assay [2] (setting [4]) was less than 400 nM each time.

With `O=C1Nc2ccccc2C(c2ccccc2)=NC1Nc1nnc(-c2cccnc2N2CCOCC2)o1` (stereo not shown) [Example 120], the EC50 in assay [1] (setting [3]) is less than 400 nM; in assay [2] (setting [4]) it was 400 to 800 nM.

In the case of `N#Cc1ccc(-c2nnc(NC3N=C(c4ccccc4)c4ccccc4NC3=O)o2)c(N2CCOCC2)c1` (stereo not shown) [Example 131], the EC50 in assay [1] (setting [3]) and in assay [2] (setting [4]) was less than 400 nM in each case.

Consider `O=C1Nc2ccccc2C(c2ccccc2)=NC1Nc1nnc(-c2ccc(C(F)(F)F)cc2N2CCOCC2)o1` (stereo not shown) [Example 123], for which the EC50 in assay [1] (setting [3]) was less than 400 nM; in assay [2] (setting [4]), 400 to 800 nM.

With `O=C1Nc2ccccc2C(c2ccccc2)=N[C@@H]1Nc1nnc(-c2ncsc2N2CCOCC2)o1` [Example 336], the EC50 in assay [1] (setting [3]) and in assay [2] (setting [4]) was less than 400 nM throughout.

Consider `CC(C)n1cc(-c2nnc(N[C@H]3N=C(c4ccccc4)c4ccccc4NC3=O)o2)c(N2CCOCC2)n1` [Example 403], for which the EC50 in assay [1] (setting [3]) and in assay [2] (setting [4]) was less than 400 nM each time.

Take `C[C@H]1CN(c2ncccc2-c2nnc(NC3N=C(c4ccccc4)c4ccccc4NC3=O)o2)CCO1` (stereo partly shown) [Example 263]: the EC50 in assay [1] (setting [3]) and in assay [2] (setting [4]) was 400 to 800 nM in each case.

For the compound `O=C1Nc2ccccc2C(c2ccccc2)=NC1Nc1nnc(-c2ccc(-n3cccn3)cc2N2CCOCC2)o1` (stereo not shown) [Example 129], the EC50 in assay [1] (setting [3]) and in assay [2] (setting [4]) was less than 400 nM in each case.

As to `O=C1Nc2ccccc2C(c2ccccc2)=N[C@@H]1Nc1nnc(-c2cccnc2N2CCOCC2)o1` [Example 242], the 50% effective concentration (EC50) in assay [1] (setting [3]) and in assay [2] (setting [4]) was less than 400 nM each time.

In the case of `C[C@H]1CN(c2cc(C(F)(F)F)cnc2-c2nnc(N[C@H]3N=C(c4ccccc4)c4ccccc4NC3=O)o2)CCO1` [Example 278], the concentration giving a half-maximal response (EC50) in assay [1] (setting [3]) and in assay [2] (setting [4]) was less than 400 nM each time.

`N#Cc1ccc(-c2ccc(NC3N=C(c4ccccc4)c4ccccc4NC3=O)nn2)cc1` (stereo not shown) [Example 377]: the EC50 in assay [1] (setting [3]) and in assay [2] (setting [4]) was less than 400 nM each time.

For `C[C@@H]1CN(c2cc(C(F)(F)F)cnc2-c2nnc(N[C@H]3N=C(c4ccccc4)c4ccccc4NC3=O)o2)CCO1` [Example 277], the EC50 in assay [1] (setting [3]) and in assay [2] (setting [4]) was less than 400 nM each time.

For `O=C1Nc2ccccc2C(c2ccccc2)=NC1Nc1nnc(-c2ccc(N3CCOCC3)cc2)o1` (stereo not shown) [Example 124], in assay [2] (setting [4]), the EC50 is less than 400 nM.

For the compound `O=C1Nc2ccccc2C(c2ccccc2)=NC1Nc1nnc(-c2ccccc2N2CCOCC2)o1` (stereo not shown) [Example 125], in assay [2] (setting [4]), the concentration giving a half-maximal response (EC50) fell in the range of 400 to 800 nM.
